# Earlier results as cited in patent US8062679B2, “Composition for maintaining androgen and androgen-like uptake potential by cells” (Northern Innovations and Formulations Corp., priority 2007, dated 2011).
# Read-outs that look alike come from different tables or passages of the source.
# Key:
# [1] = human blood
# [2] = test system: mitochondrial permeability transition
# [3] = test system: lutenizing hormone (LH); conditions: after exercise, animals
# [4] = fights ROS under low oxygen tension
# [5] = prolonged L-carnitine administration
# [6] = three weeks, equivalent of 2 g elemental carnitine per day; cross-over, placebo controlled
# [7] = target: T1, aromatase (Homo sapiens, UniProt P11511)
# T1 sequence (P11511 1-503): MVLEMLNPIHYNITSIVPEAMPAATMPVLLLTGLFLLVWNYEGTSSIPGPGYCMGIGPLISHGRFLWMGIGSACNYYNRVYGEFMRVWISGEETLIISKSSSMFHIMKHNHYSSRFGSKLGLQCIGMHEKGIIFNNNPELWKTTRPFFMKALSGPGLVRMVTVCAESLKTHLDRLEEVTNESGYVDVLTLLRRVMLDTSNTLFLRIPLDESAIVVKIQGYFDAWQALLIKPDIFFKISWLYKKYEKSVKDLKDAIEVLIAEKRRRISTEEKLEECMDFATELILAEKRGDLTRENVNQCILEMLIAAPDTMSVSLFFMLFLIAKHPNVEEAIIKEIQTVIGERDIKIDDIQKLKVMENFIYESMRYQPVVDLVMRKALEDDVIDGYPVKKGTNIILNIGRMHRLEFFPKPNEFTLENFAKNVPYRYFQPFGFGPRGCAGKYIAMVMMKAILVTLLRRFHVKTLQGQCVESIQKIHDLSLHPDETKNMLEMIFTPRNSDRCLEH
# [8] = test system: GH; conditions: oral, both 0.5 mg and 5.0 mg
# [9] = test system: GH
# [10] = test system: GH; remark: listed apart in the source
molecule,measurement,setting,value
"COC1=C(OC)C(=O)C(C/C=C(\C)CC/C=C(\C)CC/C=C(\C)CC/C=C(\C)CC/C=C(\C)CC/C=C(\C)CC/C=C(\C)CC/C=C(\C)CC/C=C(\C)CCC=C(C)C)=C(C)C1=O [CoQ10, ubidecarenone]",antioxidant activity,[1],potent antioxidant
same,exercise duration,"individuals suffering from angina, vs untreated groups",able to exercise for longer periods
same,myocardial function,patients with disease conditions involving energy production deficits,improved
CCCCCCCCCCC1=C(C)C(=O)C(OC)=C(OC)C1=O [Decylubiquinone],redox-dependent mitochondrial permeability transition,[2],effectively block
CC(C)=CCC[C@](C)(O[C@@H]1O[C@H](CO[C@@H]2O[C@H](CO)[C@@H](O)[C@H](O)[C@H]2O)[C@@H](O)[C@H](O)[C@H]1O)[C@H]1CC[C@]2(C)[C@@H]1[C@H](O)C[C@@H]1[C@@]3(C)CC[C@H](O[C@@H]4O[C@H](CO)[C@@H](O)[C@H](O)[C@H]4O[C@@H]4O[C@H](CO)[C@@H](O)[C@H](O)[C@H]4O)C(C)(C)[C@@H]3CC[C@]12C [Ginsenoside Rb1],secretion of lutenizing hormone (LH),[3],stimulate the secretion
COC1=C(OC)C(=O)C(CCCCCCCCCCO)=C(C)C1=O [Idebenone],antioxidant activity,[4],potent antioxidant
C[N+](C)(C)C[C@H](O)CC(=O)[O-] [L-carnitine],pain and damage from eccentric muscular effort,[5],protective effect
"C[N+](C)(C)C[C@H](O)CC(=O)[O-].O=C(O)C(O)C(O)C(=O)O [LCLT, L-carnitine L-tartrate]",muscle damage produced by an acute bout of high-intensity resistance exercise,[6],reduce muscle damage
CCCCC/C=C\C/C=C\CCCCCCCC(=O)O [linoleic],aromatase activity,[7],efficient suppressors
CC/C=C\C/C=C\C/C=C\CCCCCCCC(=O)O [linolenic],aromatase activity,[7],efficient suppressors
"COc1ccc2[nH]cc(CCNC(C)=O)c2c1 [melatonin, N-Acetyl-5-methoxytryptamine]",plasma GH concentrations,[8],significant increase
same,time of peak plasma GH,[8],60 min
same,"GH, area under the curve","[9]; 5.0 mg orally 60 minutes prior to bicycle exercise at 70% VO2max, vs placebo",significant increases
same,time of GH peak following exercise,[9]; 5.0 mg orally 60 minutes prior to exercise,30 min
same,serum free GH following a single bout of heavy-resistance exercise,"[10]; 0.5 and 5.0 mg, weight-trained young males",significantly more effective than placebo
same,serum IGFBP-3,[10]; pre- and post-exercise periods,notable increases
conjugated linoleic acids,aromatase activity,[7],efficient suppressors
